# Assay results reported in US20140228377A1, “METHYLPIPERIDINE DERIVATIVE” (TAISHO PHARMACEUTICAL CO., LTD., priority 2011, published 2014).
# Experiments:
# [1] = target: T1, human orexin-1 receptor (hOX1R) (Homo sapiens, UniProt O43613); assay: Orexin antagonistic activity assay (intracellular Ca2+, FDSS) in CHO cells expressing hOX1R; format: cell-based; settings: CHO cells expressing hOX1R; ligand peptide 300 pM; Fluo-3 maximum fluorescence intensity; read-out: IC50 value OX1
# T1 construct: expressed in transfected cells; host or cells: Chinese hamster ovary (CHO) cells
# T1 sequence (O43613 1-425): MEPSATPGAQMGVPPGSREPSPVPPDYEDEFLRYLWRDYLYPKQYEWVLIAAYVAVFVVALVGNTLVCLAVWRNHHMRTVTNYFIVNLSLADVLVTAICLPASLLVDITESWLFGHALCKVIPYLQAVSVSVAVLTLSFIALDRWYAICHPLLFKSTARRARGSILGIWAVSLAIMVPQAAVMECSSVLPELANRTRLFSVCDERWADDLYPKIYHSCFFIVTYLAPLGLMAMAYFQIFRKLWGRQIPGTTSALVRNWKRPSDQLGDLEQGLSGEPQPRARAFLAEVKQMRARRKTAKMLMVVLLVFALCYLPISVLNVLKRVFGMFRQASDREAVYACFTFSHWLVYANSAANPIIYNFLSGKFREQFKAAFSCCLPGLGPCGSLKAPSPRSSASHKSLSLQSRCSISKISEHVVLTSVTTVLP
# Description: (§1) The antagonistic activity of each test compound against human orexin-1 receptor (hOX1R) and orexin-2 receptor (hOX2R) was assayed by a modification of a method described in the literature (Toshikatsu Okumura et al., Biochemical and Biophysical Research Communications 280, 976-981, 2001). Chinese hamster ovary (CHO) cells forced to express hOX1R or hOX2R were inoculated at a density of 20,000 cells/well to a 96-well Black clear bottom plate (Nunc) and cultured at 37° C. for 16 hours under 5% CO2 conditions in a Ham's F-12 medium containing 0.1 mM MEM nonessential amino acids, 0.5 mg/ml G418, and 10% fetal bovine serum (all from Invitrogen Corp.). After removal of the medium, 100 μL of a buffer solution for assay (25 mM HEPES (Dojindo Laboratories), Hanks' balanced salt solution (Invitrogen Corp.), 0.1% bovine serum albumin, 2.5 mM probenecid, and 200 μg/ml Amaranth (all from Sigma-Aldrich Corp.), pH 7.4) containing 0.5 μM Fluo-3 AM ester (Dojindo Laboratories) was added to the cells, which were then incubated at 37° C. for 60 minutes under 5% CO2 conditions. After removal of the buffer solution for assay containing Fluo-3 AM ester, each test compound was dissolved at a concentration of 10 mM in dimethyl sulfoxide and diluted with a buffer solution for assay. Then, 150 μL of the solution was added to the cells, which were then incubated for 30 minutes.
# (§2) A ligand peptide (Pyr-[…]NH2; Peptide Institute, Inc.) derived from human orexin-A by the substitution of two amino acids was diluted with a buffer solution for assay to final concentrations of 300 pM for hOX1R and 3 nM for hOX2R. Reaction was initiated by the addition of 50 μL of this ligand solution. The fluorescence intensity of the reaction was measured in each well every second for 3 minutes using Functional Drug Screening System (FDSS; manufactured by Hamamatsu Photonics K.K.), and the maximum fluorescence intensity was used as an index for intracellular Ca^2+ concentration to determine antagonistic activity. The antagonistic activity of the test compound was calculated with fluorescence intensity from a well supplemented with only a diluting buffer solution as 100% and fluorescence intensity from a well supplemented with a buffer solution free from the ligand and the compound as 0%. The 50% inhibitory concentration (IC50 value) was determined on the basis of fluorescence intensity derived from the test compound added at varying concentrations.
# [2] = target: T2, orexin-2 receptor (hOX2R) (Homo sapiens, UniProt O43614); assay: Orexin antagonistic activity assay (intracellular Ca2+, FDSS) in CHO cells expressing hOX2R; format: cell-based; settings: CHO cells expressing hOX2R; ligand peptide 3 nM; Fluo-3 maximum fluorescence intensity; read-out: IC50 value OX2
# T2 construct: expressed in transfected cells; host or cells: Chinese hamster ovary (CHO) cells
# T2 sequence (O43614 1-444): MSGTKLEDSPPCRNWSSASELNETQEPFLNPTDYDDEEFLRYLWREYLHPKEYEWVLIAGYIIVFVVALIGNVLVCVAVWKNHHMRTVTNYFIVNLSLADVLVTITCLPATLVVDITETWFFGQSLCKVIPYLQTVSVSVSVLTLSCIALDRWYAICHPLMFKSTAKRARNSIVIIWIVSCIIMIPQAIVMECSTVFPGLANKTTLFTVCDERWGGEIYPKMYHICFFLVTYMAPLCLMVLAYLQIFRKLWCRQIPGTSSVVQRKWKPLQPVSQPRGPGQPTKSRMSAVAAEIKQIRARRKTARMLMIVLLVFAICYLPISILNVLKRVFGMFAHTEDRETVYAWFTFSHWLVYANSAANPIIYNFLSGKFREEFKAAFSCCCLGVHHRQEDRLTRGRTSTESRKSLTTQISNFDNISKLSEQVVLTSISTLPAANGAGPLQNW
# Description: as §1, §2
Compound,IC50 [1],IC50 [2]
"C[C@@H]1CC[C@@H](c2nc3cc(F)ccc3o2)CN1C(=O)c1cc(Cl)ccc1-c1ncccn1 [Example 33, [5-Chloro-2-(pyrimidin-2-yl)phenyl][(2R,5R)-5-(5-fluoro-1,3-benzoxazol-2-yl)-2-methylpiperidin-1-yl]methanone]",0.0446 µM,0.0092 µM
"Cc1ccc(-n2nccn2)c(C(=O)N2C[C@H](c3nc4cc(Cl)cnc4o3)CC[C@H]2C)c1 [Example 71, [(2R,5R)-5-(6-Chloro[1,3]oxazolo[5,4-b]pyridin-2-yl)-2-methylpiperidin-1-yl][5-methyl-2-(2H-1,2,3-triazol-2-yl)phenyl]methanone]",0.106 µM,0.0061 µM
"Cc1ccc(-c2ncccn2)c(C(=O)N2C[C@H](c3nc4cc(OC(F)(F)F)ccc4o3)CC[C@H]2C)c1 [Example 41, [5-Methyl-2-(pyrimidin-2-yl)phenyl]{(2R,5R)-2-methyl-5-[5-(trifluoromethoxy)-1,3-benzoxazol-2-yl]piperidin-1-yl}methanone]",0.177 µM,0.0451 µM
"Cc1ccc(-n2nccn2)c(C(=O)N2C[C@H](c3nc4cc(C(F)(F)F)ccc4o3)CC[C@H]2C)n1 [Example 40, [6-Methyl-3-(2H-1,2,3-triazol-2-yl)pyridin-2-yl]{(2R,5R)-2-methyl-5-[5-(trifluoromethyl)-1,3-benzoxazol-2-yl]piperidin-1-yl}methanone]",0.157 µM,0.1 µM
"C[C@@H]1CC[C@@H](c2nc3ccc(Cl)cc3o2)CN1C(=O)c1cc(F)ccc1-c1ncccn1 [Example 45, [(2R,5R)-5-(6-Chloro-1,3-benzoxazol-2-yl)-2-methylpiperidin-1-yl][5-fluoro-2-(pyrimidin-2-yl)phenyl]methanone]",0.0772 µM,0.0122 µM
"Cc1ccc(-n2nccn2)c(C(=O)N2C[C@H](c3nc4c(F)cc(F)cc4o3)CC[C@H]2C)c1 [Example 60, [(2R,5R)-5-(4,6-Difluoro-1,3-benzoxazol-2-yl)-2-methylpiperidin-1-yl][5-methyl-2-(2H-1,2,3-triazol-2-yl)phenyl]methanone]",0.0933 µM,0.0457 µM
"C[C@@H]1CC[C@@H](c2nc3cc(Cl)ccc3o2)CN1C(=O)c1ccccc1-c1ncccn1 (single isomer, unassigned) [Example 7, [(2R*,5R*)-5-(5-Chloro-1,3-benzoxazol-2-yl)-2-methylpiperidin-1-yl][2-(pyrimidin-2-yl)phenyl]methanone]",0.0495 µM,0.002 µM
"Cc1ccc(-n2nccn2)c(C(=O)N2C[C@H](c3nc4ccc(F)cc4o3)CC[C@H]2C)n1 (single isomer, unassigned) [Example 12, [(2R*,5R*)-5-(6-Fluoro-1,3-benzoxazol-2-yl)-2-methylpiperidin-1-yl][6-methyl-3-(2H-1,2,3-triazol-2-yl)pyridin-2-yl]methanone]",0.111 µM,0.105 µM
"Cc1ccc(-n2nccn2)c(C(=O)N2C[C@H](c3nc4cc(F)cc(F)c4o3)CC[C@H]2C)n1 [Example 64, [(2R,5R)-5-(5,7-Difluoro-1,3-benzoxazol-2-yl)-2-methylpiperidin-1-yl][6-methyl-3-(2H-1,2,3-triazol-2-yl)pyridin-2-yl]methanone]",0.144 µM,0.0285 µM
"C[C@@H]1CC[C@@H](c2nc3cc(Cl)ccc3o2)CN1C(=O)c1cc(F)ccc1-c1ncccn1 (single isomer, unassigned) [Example 6, [(2R*,5R*)-5-(5-Chloro-1,3-benzoxazol-2-yl)-2-methylpiperidin-1-yl][5-fluoro-2-(pyrimidin-2-yl)phenyl]methanone]",0.0545 µM,0.0029 µM
"C[C@@H]1CC[C@@H](c2nc3cc(F)c(F)cc3o2)CN1C(=O)c1ccc(F)cc1-n1nccn1 [Example 55, [(2R,5R)-5-(5,6-Difluoro-1,3-benzoxazol-2-yl)-2-methylpiperidin-1-yl][4-fluoro-2-(2H-1,2,3-triazol-2-yl)phenyl]methanone]",0.207 µM,0.0094 µM

# These reach a lower IC50 [1]. Values come first.
IC50 [1],IC50 [2],Compound
0.0416 µM,0.0088 µM,"C[C@@H]1CC[C@@H](c2nc3cc(Cl)ccc3o2)CN1C(=O)c1ccc(F)cc1-n1nccn1 [Example 14, [(2R,5R)-5-(5-Chloro-1,3-benzoxazol-2-yl)-2-methylpiperidin-1-yl][4-fluoro-2-(2H-1,2,3-triazol-2-yl)phenyl]methanone]"
0.0365 µM,0.0093 µM,"Cc1ccc(-c2ncccn2)c(C(=O)N2C[C@H](c3nc4cc(C(F)(F)F)ccc4o3)CC[C@H]2C)c1 [Example 37, [5-Methyl-2-(pyrimidin-2-yl)phenyl]{(2R,5R)-2-methyl-5-[5-(trifluoromethyl)-1,3-benzoxazol-2-yl]piperidin-1-yl}methanone]"
0.0291 µM,0.0055 µM,"Cc1ccc(-c2ncccn2)c(C(=O)N2C[C@H](c3nc4cc(F)cc(F)c4o3)CC[C@H]2C)c1 [Example 63, [(2R,5R)-5-(5,7-Difluoro-1,3-benzoxazol-2-yl)-2-methylpiperidin-1-yl][5-methyl-2-(pyrimidin-2-yl)phenyl]methanone]"
0.0248 µM,0.0043 µM,"Cc1ccc(-n2nccn2)c(C(=O)N2C[C@H](c3nc4cc(F)cc(F)c4o3)CC[C@H]2C)c1 [Example 62, [(2R,5R)-5-(5,7-Difluoro-1,3-benzoxazol-2-yl)-2-methylpiperidin-1-yl][5-methyl-2-(2H-1,2,3-triazol-2-yl)phenyl]methanone]"
0.0123 µM,0.0162 µM,"C[C@@H]1CC[C@@H](c2nc3c(Cl)cccc3o2)CN1C(=O)c1cc(F)ccc1-c1ncccn1 [Example 70, [(2R,5R)-5-(4-Chloro-1,3-benzoxazol-2-yl)-2-methylpiperidin-1-yl][5-fluoro-2-(pyrimidin-2-yl)phenyl]methanone]"
0.0089 µM,0.0025 µM,"Cc1ccc(-n2nccn2)c(C(=O)N2C[C@H](c3nc4cc(C(F)(F)F)ccc4o3)CC[C@H]2C)c1 [Example 36, [5-Methyl-2-(2H-1,2,3-triazol-2-yl)phenyl][(2R,5R)-2-methyl-5-[5-(trifluoromethyl)-1,3-benzoxazol-2-yl]piperidin-1-yl]methanone]"
0.0086 µM,0.0066 µM,"Cc1ccc(-n2nccn2)c(C(=O)N2C[C@H](c3nc4cccc(F)c4o3)CC[C@H]2C)c1 [Example 65, [(2R,5R)-5-(7-Fluoro-1,3-benzoxazol-2-yl)-2-methylpiperidin-1-yl][5-methyl-2-(2H-1,2,3-triazol-2-yl)phenyl]methanone]"
0.0071 µM,0.0046 µM,"Cc1ccc(-n2nccn2)c(C(=O)N2C[C@H](c3nc4c(Cl)cccc4o3)CC[C@H]2C)c1 [Example 68, [(2R,5R)-5-(4-Chloro-1,3-benzoxazol-2-yl)-2-methylpiperidin-1-yl][5-methyl-2-(2H-1,2,3-triazol-2-yl)phenyl]methanone]"
0.0031 µM,0.0043 µM,"Cc1ccc(-c2ncccn2)c(C(=O)N2C[C@H](c3nc4cc(Cl)ccc4o3)CC[C@H]2C)c1 (single isomer, unassigned) [Example 5, [(2R*,5R*)-5-(5-Chloro-1,3-benzoxazol-2-yl)-2-methylpiperidin-1-yl][5-methyl-2-(pyrimidin-2-yl)phenyl]methanone]"
